This passage reports IC50 results from ChEMBL document CHEMBL1140730, “Validation of diacyl glycerolacyltransferase I as a novel target for the treatment of obesity and dyslipidemia using a potent and selective small molecule inhibitor” (J Med Chem, 2008).

For this experiment, the target named is T1, Diacylglycerol O-acyltransferase 1 (Mus musculus, UniProt Q9Z2A7).
T1 sequence (Q9Z2A7 whole entry): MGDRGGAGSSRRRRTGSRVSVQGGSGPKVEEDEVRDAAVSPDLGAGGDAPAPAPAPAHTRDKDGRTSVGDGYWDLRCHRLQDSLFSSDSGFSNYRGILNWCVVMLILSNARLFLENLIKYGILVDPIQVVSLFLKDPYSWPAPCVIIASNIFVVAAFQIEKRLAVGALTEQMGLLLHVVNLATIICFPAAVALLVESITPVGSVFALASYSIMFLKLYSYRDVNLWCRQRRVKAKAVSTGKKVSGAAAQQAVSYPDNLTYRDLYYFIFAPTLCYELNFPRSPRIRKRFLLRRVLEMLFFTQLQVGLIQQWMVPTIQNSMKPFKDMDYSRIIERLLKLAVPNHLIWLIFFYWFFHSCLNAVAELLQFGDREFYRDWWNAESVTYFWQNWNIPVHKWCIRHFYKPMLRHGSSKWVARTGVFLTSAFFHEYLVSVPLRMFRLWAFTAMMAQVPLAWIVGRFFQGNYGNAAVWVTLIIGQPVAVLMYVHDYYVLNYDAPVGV
Put plainly: Inhibition of mouse recombinant DGAT1 expressed in Sf9 cells.

Structures are written as SMILES.

As a reminder, the IC50 is the midpoint of a concentration-inhibition curve. `O=C(O)[C@@H]1CCC[C@H]1C(=O)c1ccc(-c2ccc(Nc3nc4ccc(OC(F)(F)F)cc4s3)c(F)c2)cc1`: the IC50 stood at 0.207 µM.

For `O=C(Nc1ccc(-c2ccc(C(=O)[C@@H]3CCC[C@H]3C(=O)O)cc2)cc1)Nc1cccc(F)c1`, the IC50 worked out at 0.039 µM.

On to `N#Cc1ccc(NC(=O)Nc2ccc(-c3ccc(C(=O)[C@@H]4CCC[C@H]4C(=O)O)cc3)cc2)cc1`, for which the IC50 stood at 0.603 µM.

`O=C(Nc1ccc(-c2ccc(C(=O)[C@@H]3CCC[C@H]3C(=O)O)cc2)cc1)Nc1cccc(C(F)(F)F)c1`: the 50% inhibitory concentration (IC50) is 0.017 µM.

`O=C(Nc1ccc(-c2ccc(C(=O)[C@@H]3CCC[C@H]3C(=O)O)cc2)cc1)Nc1ccc2c(c1)OCO2`: the concentration for half-maximal inhibition (IC50) was 0.063 µM.

With `O=C(Nc1ccc(-c2ccc(C(=O)[C@@H]3CCC[C@H]3C(=O)O)cc2)cc1)Nc1ccc(C(F)(F)F)cc1`, the half-inhibitory concentration (IC50) was found to be 0.014 µM.
